Results on 34 compounds are retold here after patent publication US6924304B2, “Cell proliferation inhibitors” (Abbott Laboratories, priority 1999, dated 2005).

Structures can show the parent of a compound that is named as a salt.

For test [1], the system named is human colon adenocarcinoma, MDR positive (HCT-15) cells. Put plainly: 48-hour cellular proliferation assay (sulforhodamine staining), HCT-15 cells. To be noted: 10^−4 M compound, HCT-15 cells (MDR positive); for inhibition at 100 µM: Homo sapiens. The test is classed as cell-based. As for the experimental part: (§1) Compounds of this invention were tested in a 48-hour cellular proliferation assay which uses human colon adenocarcinoma, MDR positive (HCT-15) cells, and human lung large cell carcinoma, MDR negative (NCI-H460) cells, in the 96-well microtitre format described in Skehan P., et al. New Colorimetric Cytotoxicity Assay for Anticancer Drug Screening. 1990, J. Natl. Cancer Inst. 82:1107-1112, hereby incorporated by reference. Briefly, the wells of a microtitre plate were charged sequentially with cultured cells and compounds of the invention (1.0×10^−4 to 1.0×10^−11 M in 10% DMSO prepared by dissolving compounds of the invention in DMSO and adding 11 μL of the DMSO solution to 100 μL of culture medium for a final DMSO concentration of 10%). Two of the following controls were also present in each microtitre plate: a solvent (DMSO) control without drug that yielded a 0% inhibition level and a trichloroacetic acid-treated well that yielded a 100% inhibition level. The cells were grown in culture (37° C., 5% CO2 atmosphere) for 48 hours then fixed by the addition of trichloroacetic acid. The wells were stained with sulforhodamine, washed with 1% acetic acid, and treated with 0.01 M tris buffer (100 μL) to solubilize the adherent dye. The absorbance of the dye solution was measured with a Molecular Devices SpectraMax340 plate reader. The percent inhibition values were obtained by calculating the proportional response of the experimental values to the absorbance values of the controls.

For test [2], the system named is human lung large cell carcinoma, MDR negative (NCI-H460) cells. Kind of test: 48-hour cellular proliferation assay (sulforhodamine staining), NCI-H460 cells. In kind it is cell-based. To be noted: 10^−4 M compound; for inhibition at 100 µM: Homo sapiens, read-out: NCI-460 % inhibition at 10^−4 M. As for the experimental part:
as §1

“3,4-dimethoxy-N-(3,4,5-trimethoxyphenyl)benzamide [Example 2]”: in test [1], the “HCT-15 % inhibition at 10^−4 M” value is given as more than 95%. Besides, in test [2], the “NCI-460 % inhibition at 10^−4 M” value came out at 99.6%.

Broadly, the inhibition is the share of the control response that was lost under treatment. With `COc1cc(NS(=O)(=O)c2ccc(OC(F)(F)F)cc2)cc(OC)c1OC` [Example 3, 4-trifluoromethoxy-N-(3,4,5-trimethoxyphenyl)benzenesulfonamide], the inhibition at 100 µM in test [1] came out at 94.4%; in test [2], 100%. Take `COc1cc(NS(=O)(=O)c2ccc(C(F)(F)F)cc2)cc(OC)c1OC` [Example 4, 4-trifluoromethyl-N-(3,4,5-trimethoxyphenyl)benzenesulfonamide]: the results for the inhibition at 100 µM in test [1] and in test [2] were 82.6% and 99.8%, respectively.

Regarding `COc1cc(NS(=O)(=O)c2ccc([N+](=O)[O-])cc2)cc(OC)c1OC` [Example 5, 4-nitro-N-(3,4,5-trimethoxyphenyl)benzenesulfonamide], the inhibition at 100 µM in test [1] was determined as 68.5%; in test [2], 99.9%. With `COc1cc(NS(=O)(=O)c2ccc(N)cc2)cc(OC)c1OC` [Example 6, 4-amino-N-(3,4,5-trimethoxyphenyl)benzenesulfonamide], the inhibition at 100 µM in test [1] was 54.8%; in test [2], more than 95%. The corresponding values for `COc1cc(NS(=O)(=O)c2ccc(NC(=O)CCl)cc2)cc(OC)c1OC` [Example 7, 4-((2-chloroacetyl)amino)-N-(3,4,5-trimethoxyphenyl)benzenesulfonamide] are 96.7% and 89.2%.

Consider `COc1cc(NS(=O)(=O)c2ccccc2[N+](=O)[O-])cc(OC)c1OC` [Example 8, 2-nitro-N-(3,4,5-trimethoxyphenyl)benzenesulfonamide], for which the inhibition at 100 µM in test [1] was 53.8%; in test [2], 50%. On to `COc1ccc(S(=O)(=O)Nc2cc(OC)c(OC)c(OC)c2)cc1[N+](=O)[O-]` [Example 9, 4-methoxy-3-nitro-N-(3,4,5-trimethoxyphenyl)benzenesulfonamide], for which the figures for the inhibition at 100 µM in test [1] and in test [2] were 77.2% and 47.4%, respectively. In the same order, the values of `COc1ccc(S(=O)(=O)Nc2cc(OC)c(OC)c(OC)c2)cc1N` [Example 10, 3-amino-4-methoxy-N-(3,4,5-trimethoxyphenyl)benzenesulfonamide hydrochloride] are 99.8% and 99.6%. Turning to `COc1cc(NS(=O)(=O)c2c[nH]c3ccc(N)cc23)cc(OC)c1OC` [Example 17, 5-amino-N-(3,4,5-trimethoxyphenyl)-1H-indole-3-sulfonamide], in test [2], the inhibition at 100 µM is less than 9.1%. As to `COc1cc(NS(=O)(=O)c2ccc3c(ccn3C)c2)cc(OC)c1OC` [Example 19, 1-methyl-N-(3,4,5-trimethoxyphenyl)-1H-indole-5-sulfonamide], the inhibition at 100 µM in test [2] amounted to 100%. On to `COc1ccc(NS(=O)(=O)c2cc(OC)c(OC)c(OC)c2)cc1` [Example 21, 3,4,5-trimethoxy-N-(4-methoxyphenyl)benenesulfonamide], for which the “HCT-15 % inhibition at 10^−4 M” value in test [1] stood at 97.8%. Further, the “NCI-460 % inhibition at 10^−4 M” value in test [2] was determined as 96.0%. With `COc1ccc(NC(=O)c2cc(OC)c(OC)c(OC)c2)cc1O` [Example 22, N-(3-hydroxy-4-methoxyphenyl)-3,4,5-trimethoxybenzamide], the inhibition at 100 µM in test [1] is 99.8%; in test [2] it was 99.5%.

For the compound `COc1cc(S(=O)(=O)Nc2ccc3c(ccn3C)c2)cc(OC)c1OC` [Example 23, N-(1-methyl-1H-indol-5-yl)-3,4,5-trimethoxybenzenesulfonamide], the inhibition at 100 µM in test [1] and in test [2] was 100% throughout. Turning to `COc1cc(S(=O)(=O)Nc2ccc(N(C)C)cc2)cc(OC)c1OC` [Example 24, N-(4-(dimethylamino)phenyl)-3,4,5-trimethoxybenzenesulfonamide], the inhibition at 100 µM is 95.8% in test [1] and 92% in test [2]. Take `COc1cc(NS(=O)(=O)c2cc(OC)c(OC)c(OC)c2)ccc1F` [Example 25, N-(4-fluoro-3-methoxyphenyl)-3,4,5-trimethoxybenzenesulfonamide]: the inhibition at 100 µM in test [1] is 62.1%; in test [2], 57.8%. Consider `COc1cc(S(=O)(=O)Nc2ccc(OC(F)(F)F)cc2)cc(OC)c1OC` [Example 26, 3,4,5-trimethoxy-N-(4-(trifluoromethoxy)phenyl)benzenesulfonamide], for which the inhibition at 100 µM in test [1] amounted to 70.9%; in test [2], 46.7%. Turning to `COc1cc(S(=O)(=O)Nc2c(F)c(F)c(F)c(F)c2F)cc(OC)c1OC` [Example 27, 3,4,5-trimethoxy-N-(2,3,4,5,6-pentafluorophenyl)benzenesulfonamide], the results for the inhibition at 100 µM in test [1] and in test [2] were 57% and 61.6%, respectively.

As to `COc1ccc(NS(=O)(=O)c2cc(OC)c(OC)c(OC)c2)cc1N` [Example 28, N-(3-amino-4-methoxyphenyl)-3,4,5-trimethoxybenzenesulfonamide hydrochloride], the inhibition at 100 µM stood at 99.9% in test [1] and 99.8% in test [2]. As for `COc1cc(S(=O)(=O)Nc2cccc3c2ccn3C)cc(OC)c1OC` [Example 29, 3,4,5-trimethoxy-N-(1-methyl-1H-indol-4-yl)benzenesulfonamide], the inhibition at 100 µM in test [1] is 95.1%; in test [2], 90.8%. Consider `COc1cc(S(=O)(=O)Nc2ccc3ccn(C)c3c2)cc(OC)c1OC` [Example 30, 3,4,5-trimethoxy-N-(1-methyl-1H-indol-6-yl)benzenesulfonamide], for which the results for the inhibition at 100 µM in test [1] and in test [2] were 94.9% and 83.8%, respectively. As for `COc1cc(S(=O)(=O)Nc2ccc3[nH]ccc3c2)cc(OC)c1OC` [Example 31, N-(1H-indol-5-yl)-3,4,5-trimethoxybenzenesulfonamide], the results for the inhibition at 100 µM in test [1] and in test [2] were 98.6% and 95.1%, respectively. In the same order, the values of `COc1cc(S(=O)(=O)Nc2ccc3c(c2)cc(C)n3C)cc(OC)c1OC` [Example 32, N-(1,2-dimethyl-1H-indol-5-yl)-3,4,5-trimethoxybenzenesulfonamide] are 99.8% and 99.8%. `COc1cc(S(=O)(=O)Nc2ccc3[nH]cc(Cl)c3c2)cc(OC)c1OC` [Example 33, N-(3-chloro-1H-indol-5-yl)-3,4,5-trimethoxybenzenesulfonamide]: the inhibition at 100 µM came out at 92% in test [1] and 2.8% in test [2]. In the same order, the values of `COc1cc(S(=O)(=O)Nc2ccc3[nH]ncc3c2)cc(OC)c1OC` [Example 34, N-(1H-indazol-5-yl)-3,4,5-trimethoxybenzenesulfonamide] are 47.6% and 18.5%. In the same order, the values of `COc1cc(S(=O)(=O)Nc2ccc3ncn(C)c3c2)cc(OC)c1OC` [Example 35, 3,4,5-trimethoxy-N-(1-methyl-1H-benzimidazol-6-yl)benzenesulfonamide] are 65.2% and 34.5%. As for `COc1cc(S(=O)(=O)Nc2ccc3c(c2)ncn3C)cc(OC)c1OC` [Example 36, 3,4,5-trimethoxy-N-(1-methyl-1H-benzimidazol-5-yl)benzenesulfonamide], the inhibition at 100 µM in test [1] amounted to 99.3%; in test [2], 99.5%. For the compound `COc1cc(S(=O)(=O)N(C)c2ccc3c(ccn3C)c2)cc(OC)c1OC` [Example 37, 3,4,5-trimethoxy-N-methyl-N-(1-methyl-1H-indol-5-yl)benzenesulfonamide], the results for the inhibition at 100 µM in test [1] and in test [2] were 99.9% and 100%, respectively. As to `COc1cc(S(=O)(=O)N(CCN(C)C)c2ccc3c(ccn3C)c2)cc(OC)c1OC` [Example 38, 3,4,5-trimethoxy-N-(2-(dimethylamino)ethyl)-N-(1-methyl-1H-indol-5-yl)benzenesulfonamide], the inhibition at 100 µM is 87.5% in test [1] and 81% in test [2]. On to `COc1cc(S(=O)(=O)Oc2ccc3[nH]ccc3c2)cc(OC)c1OC` [Example 39, 1H-indol-5-ol, (3,4,5-trimethoxybenzenesulfonate)ester], for which the “HCT-15 % inhibition at 10^−4 M” value in test [1] was 100.0%. For the same compound, the “NCI-460 % inhibition at 10^−4 M” value in test [2] came to 100.0%.

`COc1ccc(S(=O)(=O)Oc2cc(OC)c(OC)c(OC)c2)cc1` [Example 40, (3,4,5-trimethoxyphenyl) 4-methoxybenzenesulfonate]: the inhibition at 100 µM in test [1] and in test [2] was 99.9% throughout.

In the case of `COc1cc(OS(=O)(=O)c2ccc(C)cc2)cc(OC)c1OC` [Example 41, (3,4,5-trimethoxyphenyl) 4-methylbenzenesulfonate], the inhibition at 100 µM in test [1] was 99.8%; in test [2] it was 99.5%. Take `COc1cc(S(=O)(=O)Oc2ccc3[nH]ccc3c2)cc(OC)c1OC` [Example 42, 1H-indol-5-yl 3,4,5-trimethoxybenzenesulfonate]: the inhibition at 100 µM in test [1] and in test [2] was 100% throughout. As for `COc1ccc(S(=O)(=O)Oc2cc(OC)c(OC)c(OC)c2)cc1N` [Example 43, (3,4,5-trimethoxyphenyl) 3-amino-4-methoxybenzenesulfonate], the inhibition at 100 µM in test [1] and in test [2] was 100% in each case.
